Blank lines part the entries; values can stand above or below the compound they belong to.
Assays:
human serum albumin = human serum albumin (Homo sapiens, UniProt P02768); experiment: Stability of 111In-labeled bifunctional chelates incubated with human serum albumin (TLC); type: in vitro ADME; details: after 20 hrs; 20 mM Hepes, pH 7.4, 37° C.; 1 mM free sulfhydryl as human serum albumin
Description: The electrophilic chelates AABE, CABE, BABE were labeled with indium-111 and incubated in a Hepes buffered solution at physiological pH and temperature (20 mM Hepes, pH 7.4, 37° C.) containing 1 mM free sulfhydryl groups in the form of human serum albumin-approximating the concentration of thiols in plasma.
The reactive chelates 5–7 and aminobenzyl-EDTA (“ABE”) were labeled with ^111In and analyzed by TLC (50:50 Methanol/10% NaOAc pH8.2) to show complete chelation. To 0.5 mL of human serum albumin solution was added 2 μl of one of the labeled chelates. […] The vials were mixed by manual agitation, and 2 μl was removed and analyzed by TLC.
The fraction unreacted is plotted versus incubation time in FIG. 6. After 20 hrs, >95% of the In-AABE and In-CABE molecules were unreacted, while most of the In-BABE was attached to albumin. This confirmed the expectation that AABE and CABE are stable, and are good candidates for pretargeting. We infer that these chelates should be unreactive in blood for the length of time needed for pretargeting (40 min–4 hrs); if not, many other choices are available.

native antibody CHA255 = experiment: Control incubation of chelates with native antibody CHA255 (covalent labeling); type: biochemical, mouse; details: indium chelates incubated with native antibody; BABE: after several hours
Description: As a control, the same chelates were incubated with native antibody CHA255, to see if they would covalently label it.

S95C Fab light chain = experiment: Covalent cross-linking of 111In-labeled chelates to S95C Fab in culture medium (SDS-PAGE, phosphorimage); type: biochemical, mouse/human chimeric; details: 111In-labeled chelate, culture medium containing S95C mutant, 30 minutes
Description: FIG. 18 is a phosphorimage of a 15% SDS-PAGE gel of samples incubated 30 minutes at 37° C. Chelates (CABE, CpABE, AABE, ABE) are in lanes 1–4, along with culture medium containing the S95C mutant. The (radiolabeled) band (at 26 kDa) in lane 1 is the crosslink between CABE (our positive control) and S95C Fab light chain. […] No crosslinks are observed with the non-nucleophilic native Fab, nor with the N96C mutant.
100 μl of complete culture medium from S2 cultures expressing each of the CHA255 Chimeric Fabs was mixed with 5 μl of 100 mM DOTA to sequester Cu^2+ from induction of expression. Each chelate was loaded with ^111In as previously described with a specific activity of 200 μCi. Complete metallation was analyzed by TLC as described previously. Specifically, 1 μl of chelate was added to 2.8 μl of 0.1 M citrate buffer (pH 5.5) to which was added 1.2 μl of carrier free ^111In (Nordion) ([…]) and the chelate was analyzed by TLC. 4 μl of loaded chelate was added to the 105 μl of Fab-DOTA in medium. This solution was incubated for 30 min. at room temperature. The reaction was stopped by separation of excess chelate by gel filtration spin chromatography (Penefsky column). 20 μl of eluant was added to 5 μl of sample application buffer containing β-mercaptoethanol (5×SDS PAGE SAB), boiled and reduced for 10 min. at 95° C. This was loaded onto a 1020% SDS-Page gel and electrophoriesed for 1 hr at 200V. The gel was fixed and dried via standard protocols and then exposed to a phosphorimager plate for 12 h. The plate was visualized with a Storm 640 phosphorimager (Molecular Dymanics).
In-labeled electrophilic chelates were incubated in Fab-containing culture medium to investigate whether either of the mutant antibodies would bind irreversibly to its target. Serum-containing culture medium was used as a representation of typical biological media. […] We incubated ^111In-labeled chelates bearing electrophilic acrylamido, chloroproprionamido, or chloroacetamido groups at physiological pH and temperature with raw tissue culture medium from the cells expressing the recombinant antibodies. As a control, an ^111In-labeled chelate bearing the non-electrophilic amino group was also included. At various times after addition of the radioactive chelates, we removed samples from the incubation and applied them to a gel filtration spin column to remove excess radiolabeled chelate.
The samples were analyzed by SDS-PAGE and visualized by phosphorimager. Separation under reducing and denaturing conditions on SDS-PAGE will separate the light chain from the heavy chain of each Fab, functionally destroying the antibody-binding pocket.

Sequence of human serum albumin (P02768 25-609): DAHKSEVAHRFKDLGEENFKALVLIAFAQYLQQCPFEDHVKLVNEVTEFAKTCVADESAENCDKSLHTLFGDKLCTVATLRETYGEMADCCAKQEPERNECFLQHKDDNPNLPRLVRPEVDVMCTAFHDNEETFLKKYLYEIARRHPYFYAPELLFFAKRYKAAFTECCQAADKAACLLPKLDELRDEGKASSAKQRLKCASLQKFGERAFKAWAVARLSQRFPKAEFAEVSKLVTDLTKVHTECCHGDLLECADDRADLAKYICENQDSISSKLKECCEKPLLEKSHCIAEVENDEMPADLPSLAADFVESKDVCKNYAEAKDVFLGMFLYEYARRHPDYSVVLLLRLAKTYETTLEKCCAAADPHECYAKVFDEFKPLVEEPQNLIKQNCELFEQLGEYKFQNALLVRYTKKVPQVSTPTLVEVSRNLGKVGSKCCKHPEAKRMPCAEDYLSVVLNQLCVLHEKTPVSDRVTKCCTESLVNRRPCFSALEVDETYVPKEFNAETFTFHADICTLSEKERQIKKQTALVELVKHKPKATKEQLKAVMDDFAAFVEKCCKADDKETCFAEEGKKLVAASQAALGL

- chelate attached to albumin (human serum albumin): most
SMILES: O=C(O)CN(CC(=O)O)CC(Cc1ccc(NC(=O)CBr)cc1)N(CC(=O)O)CC(=O)O (stereo not shown) [BABE, bromoacetylamidobenzyl]
- covalent attachment to native CHA255 (native antibody CHA255): did react to some degree

SMILES: C=CC(=O)Nc1ccc(CC(CN(CC(=O)O)CC(=O)O)N(CC(=O)O)CC(=O)O)cc1 (stereo not shown) [AABE, Acrylamidobenzyl-EDTA]
- covalent attachment to native CHA255 (native antibody CHA255): did not covalently attach
- crosslink of chelate with S95C Fab light chain (radiolabeled 26 kDa band) (S95C Fab light chain): 26 kDa band
- crosslink of chelate with S95C Fab light chain (radiolabeled 26 kDa band) (S95C Fab light chain; listed as In-AABE): reacted equally well

SMILES: Nc1ccc(CC(CN(CC(=O)O)CC(=O)O)N(CC(=O)O)CC(=O)O)cc1 (stereo not shown) [ABE, aminobenzyl-EDTA, reference compound]
- covalent attachment to native CHA255 (native antibody CHA255): did not covalently attach
- crosslink of chelate with S95C Fab light chain (radiolabeled 26 kDa band) (S95C Fab light chain): does not show crosslinks

SMILES: O=C(O)CN(CC(=O)O)CC(Cc1ccc(NC(=O)CCl)cc1)N(CC(=O)O)CC(=O)O (stereo not shown) [CABE, chloroacetylamidobenzyl]
- covalent attachment to native CHA255 (native antibody CHA255): did not covalently attach
- crosslink of chelate with S95C Fab light chain (radiolabeled 26 kDa band) (S95C Fab light chain): crosslink
- crosslink of chelate with S95C Fab light chain (radiolabeled 26 kDa band) (S95C Fab light chain; listed as In-CABE): reacted equally well
